{"source": "patent US9458123B2", "about": "“Methods, pharmaceutical compositions, therapeutic systems, and compounds for treating B cell malignancies” (University of Rochester, priority 2012, dated 2016)", "key": {"[1]": {"test_system": "PMA-induced NF-κB activation in SUDHL-6 cells", "experiment": "IκBα phosphorylation after PMA, western blot", "assay_type": "cell-based", "conditions": "SUDHL-6, PMA 100 ng/ml", "description": "SUDHL-6, RAW264.7, and MEF cells were treated with NSC697923 or DMSO (control) for 1 hour before being stimulated with the PMA (100 ng/ml), RANKL (15 ng/ml), and LPS (1.5 μg/ml) for the indicated times. The levels of IκBα phosphorylation in the indicated samples were assessed by western blotting."}, "Ubc13-Uev1A complex": {"target": "T1, Ubc13-Uev1A complex (Homo sapiens, UniProt P61088)", "T1 construct": "made in house; host or cells: E. coli BL21 (GST-Ubc13); OCI-Ly10 cell lysate (Uev1A)", "T1 sequence (P61088 whole entry, the tested form may be a part)": "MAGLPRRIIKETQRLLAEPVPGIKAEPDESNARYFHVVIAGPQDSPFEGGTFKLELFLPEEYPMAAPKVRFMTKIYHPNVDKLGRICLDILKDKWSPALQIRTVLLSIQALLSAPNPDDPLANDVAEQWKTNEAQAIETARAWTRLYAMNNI", "T1 sequence (Q13404 whole entry partner, the tested form may be a part)": "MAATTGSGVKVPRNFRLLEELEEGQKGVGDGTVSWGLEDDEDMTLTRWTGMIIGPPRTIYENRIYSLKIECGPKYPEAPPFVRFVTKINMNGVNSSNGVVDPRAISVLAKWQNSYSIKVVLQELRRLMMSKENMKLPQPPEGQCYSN", "experiment": "GST pull-down, in vitro interaction between Ubc13 and Uev1A", "assay_type": "binding", "conditions": "GST-Ubc13, OCI-Ly10 cell extract", "description": "Purified GST or GST-Ubc13 fusion proteins were incubated with the cell extract prepared from OCI-Ly10 cells with or without the presence of NSC697923 as indicated. The amounts of Uev1A protein associated with GST or GST-Ubc13 were analyzed by western blotting. The first lane was loaded with 8% of the input cell lysate. […] The assay was carried out as described in FIG. 4A, except that the loading buffer for SDS-PAGE gel contains no reducing agent, unless otherwise specified, and the reaction was analyzed by western blotting with a Ubc13-specific antibody. […] The assay was carried out as in FIG. 5B, except that UbcHSc, instead of Ubc13 and Uev1A, was used in the ubiquitination reaction and that a UbcHSc antibody was used for western blot analysis. […]\nGST-Ubc13 bound on glutathione-agarose beads was incubated with cell lysates prepared from OCI-Ly10 cells, with or without the presence of NSC697923, at 4° C. for 1 hour. […] The amounts of GST-Ubc13 and Uev1A proteins bound to the beads were then analyzed by western blotting."}, "UbcH5c": {"target": "T2, UbcH5c (Homo sapiens, UniProt P61077)", "T2 construct": "purchased Boston Biochem Inc E2-627", "T2 sequence (P61077 whole entry, the tested form may be a part)": "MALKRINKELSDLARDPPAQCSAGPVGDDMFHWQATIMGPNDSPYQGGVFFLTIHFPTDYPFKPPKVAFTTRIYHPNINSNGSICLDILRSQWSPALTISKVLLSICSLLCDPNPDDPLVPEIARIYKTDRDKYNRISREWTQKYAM", "experiment": "In vitro UbcH5c~Ub thioester conjugate formation", "assay_type": "biochemical", "description": "Purified GST or GST-Ubc13 fusion proteins were incubated with the cell extract prepared from OCI-Ly10 cells with or without the presence of NSC697923 as indicated. The amounts of Uev1A protein associated with GST or GST-Ubc13 were analyzed by western blotting. The first lane was loaded with 8% of the input cell lysate. […] The assay was carried out as described in FIG. 4A, except that the loading buffer for SDS-PAGE gel contains no reducing agent, unless otherwise specified, and the reaction was analyzed by western blotting with a Ubc13-specific antibody. […] The assay was carried out as in FIG. 5B, except that UbcHSc, instead of Ubc13 and Uev1A, was used in the ubiquitination reaction and that a UbcHSc antibody was used for western blot analysis.\nFor detecting the E2-ubiquitin (Ubc13˜Ub or UbcH5c˜Ub) thioester conjugates, the reactions were carried out as described above without GST-TRAF6. The reactions were terminated with the SDS-sample buffer without a reducing agent unless specified. The products were analyzed by western blotting with an anti-Ubc13 or anti-UbcHSc antibody as indicated."}, "OCI-Ly10 cells": {"test_system": "OCI-Ly10 cells", "experiment": "Apoptosis of OCI-Ly10 cells (western blot, 7AAD/annexin V flow cytometry)", "assay_type": "cell-based", "description": "The indicated ABC DLBCL cells were seeded at 3×10^5 cells/ml in 6-well plates and cultured in the presence of DMSO (0.2%, control) or various concentrations of NSC697923 for 24 hours. The live and dead cells were counted using the trypan blue exclusion assay. Shown are the means from three separate experiments. The average number of live cells in the control was set at 100. […] The levels of the indicated proteins were analyzed by western blotting. For caspase 3 detection, a mixture of an antibody for the uncleaved form and an antibody specific for the cleaved form was used. In FIG. 7C, OCI-Ly10 cells were treated as in FIG. 7A. The apoptotic cells (Annexin V positive cells) were measured by flow cytometry as described in Example 1 infra. A representative result from three independent experiments is depicted. […] BrdU was then added into the culture medium for 30 minutes before the cell-cycle distribution of the treated cells was analyzed as described in Example 1 infra. Shown are the averages from two independent experiments. […] BrdU was then added into the culture medium for 30 minutes before the cell-cycle distribution of the treated cells was analyzed as described in Example 1 infra. Shown are the averages from two independent experiments.\n(§1) Apoptosis was assayed using the 7AAD/annexin V apoptosis kit (BD Bioscience) as previously described (Kim et al., “Protein Kinase C-Associated Kinase is Required for NF-kappaB Signaling and Survival in Diffuse Large B-Cell Lymphoma Cells,” Blood 111:1644-1653 (2008), which is hereby incorporated by reference in its entirety). Analysis of the cell cycle distribution of the treated cells was carried out with propidium iodide (PI) and BrdU double staining as previously described (DeRan et al., “Assessing G1-to-S-Phase Progression after Genotoxic Stress,” Methods Mol. Biol. 782:221-230 (2011) and Su et al., “DNA Damage Induces Downregulation of Histone Gene Expression Through the G1 Checkpoint Pathway,” EMBO. J. 23:1133-1143 (2004), each of which is hereby incorporated by reference in its entirety)."}, "primary DLBCL cells": {"test_system": "primary DLBCL cells", "experiment": "Apoptosis of primary DLBCL cells, annexin V", "assay_type": "cell-based", "conditions": "primary cells from two DLBCL patients, 24 hours", "description": "The primary cancer cells, prepared from two DLBCL patients and grown in culture medium for seven days, were seeded at 4.5×10^5 cells/mL and treated with the indicated concentrations of NSC697923 for 24 hours. The apoptotic cells were analyzed as described in FIG. 7C. Shown are the averages from two independent experiments.\nas §1"}}, "data": [{"molecule": "Cc1ccc(S(=O)(=O)c2ccc([N+](=O)[O-])o2)cc1", "note": "[NSC697923, 2-nitro-5-tosylfuran]", "values": [{"measurement": "PMA-induced NF-κB activation (IκBα phosphorylation)", "setting": "[1]", "result": "inhibiting"}, {"measurement": "complex formation between Ubc13 and Uev1A", "setting": "Ubc13-Uev1A complex", "result": "no inhibitory effect"}, {"measurement": "formation of UbcH5c~Ub conjugate", "setting": "UbcH5c", "result": "is not inhibited"}, {"measurement": "PARP", "setting": "OCI-Ly10 cells; 5 hours", "result": "cleavage of PARP"}, {"measurement": "caspase 3", "setting": "OCI-Ly10 cells; 5 hours", "result": "activation of caspase 3"}, {"measurement": "annexin V-positive cells", "setting": "OCI-Ly10 cells; 24 hours", "result": "increase in annexin V-positive cells"}, {"measurement": "Annexin-positive (apoptotic) cells", "setting": "primary DLBCL cells", "result": "increase in Annexinpositive (apoptotic) cells"}]}]}
